From patent US20260308185A1, “STAT DEGRADERS AND USES THEREOF” (Recludix Pharma, Inc., priority 2023, published 2026)
pIC50: −log10 of the molar value.

Test system: pSTAT6 (pY641-STAT6) in PBMC
Experiment: MSD-pSTAT-PBMC Assay (pSTAT6)
Type: cell-based
Details: compound 3 hrs, then 1 ng/mL IL-4 for 10 min
Text: Cryopreserved Peripheral Blood Mononuclear Cells (PBMC) are from AllCells. Recombinant Human […] and IL-6 are from Peprotech. Mouse monoclonal anti-STAT3 antibody, rabbit monoclonal anti-pY705-STAT3 antibody, rabbit monoclonal Anti-pY641-STAT6 antibody, and lysis buffer are from Cell Signaling Technology (CST). Mouse monoclonal anti-STAT6 antibody is from BioLegend. Assay plates, blocker, and anti-rabbit secondary antibody are from Meso Scale Discovery (MSD).
Cryopreserved PBMCs were thawed out and allowed to recover overnight in IMDM+10% heat-inactivated FBS prior to plating 50,000 (STAT3) or 25,000 (STAT6) cells per well in 96-well U-bottom tissue culture plates. Cells were treated with compound for 3 hrs, then stimulated with 10 ng/mL IL-6 (STAT3) or 1 ng/mL IL-4 (STAT6) for 10 min. Cells were then spun down and washed with ice-cold PBS prior to lysing the cell pellet with 1× lysis buffer (CST) with 1× HALT protease and phosphatase inhibitor cocktail (Thermo). Lysates were transferred to and incubated overnight at 4° C. with shaking in QuickPlex 96-well high bind assay plates (MSD) pre-coated overnight with 30 μL per well of 0.6 μg/mL mouse monoclonal anti-STAT3 antibody (STAT3) or 2 μg/mL mouse monoclonal anti-STAT6 antibody (STAT6) in 1×PBS, and pre-blocked for 1 hour with 3% Blocker-A (MSD). Captured protein in the assay plates were then washed and probed with 25 μL per well of 0.25 μg/ml rabbit monoclonal anti-pY705-STAT3 antibody (STAT3) or 0.18 μg/ml rabbit monoclonal Anti-pY641-STAT6 antibody (STAT6) in 1% Blocker-A for 1 hour at room temperature with shaking, then washed and probed with 25 ul per well of 1 ug/ml Sulfo-TAG Labeled Goat Anti-Rabbit Antibody (MSD) in 1% Blocker-A for 1 hour at room temperature with shaking. Assay plates were then washed and 150 μL of 1× Read Buffer-T (MSD) was added to each well prior to reading on an SQ120 MSD Plate Reader. Assay signal from each sample was subtracted by the signal from unstimulated control wells and normalized to DMSO control wells, IC50 values were calculated using Graph Pad Prism Dose-Response Nonlinear Regression with variable slope. For both pSTAT3 and pSTAT6 A=≤100 nM; B=>100-1000 nM; C=>1000-3000 nM; and D=>3 μM.

| Structure (SMILES) | pIC50 |
| --- | --- |
| CCCC(=O)SCCOP(=O)(OCCSC(=O)CCC)C(F)(F)c1ccc2sc(C(=O)NC3CC4CC4CC4CCC(C(=O)N5CC(C#N)C(c6cccc(OCCCCOc7ccc(C8CCC(=O)NC8=O)cc7)c6)C5)N4C3=O)cc2c1 [Compound 4, S,S′-(((((2-(((3S,6S,7aS,8aR,9aR)-3-((rel-3S,4R)-3-cyano-4-(3-(4-(4-(2,6-dioxopiperidin-3-yl)phenoxy)butoxy)phenyl)pyrrolidine-1-carbonyl)-5-oxodecahydro-1H-cyclopropa[d]pyrrolo[1,2-a]azocin-6-yl)carbamoyl)benzo[b]thiophen-5-yl)difluoromethyl)phosphoryl)bis(oxy))bis(ethane-2,1-diyl)) dibutanethioate] | 6.00 to 7.00 |
| CCCC(=O)SCCOP(=O)(OCCSC(=O)CCC)C(F)(F)c1ccc2sc(C(=O)NC3CC4CC4CC4CCC(C(=O)N5CC(c6ccn(CCCCCCC#Cc7cccc8c7CN(C7CCC(=O)NC7=O)C8=O)c(=O)c6)CC56CC6)N4C3=O)cc2c1 [Compound 6, S,S′-(((((2-(((3S,6S,7aS,8aR,9aR)-3-((6R)-6-(1-(8-(2-(2,6-dioxopiperidin-3-yl)-1-oxoisoindolin-4-yl)oct-7-yn-1-yl)-2-oxo-1,2-dihydropyridin-4-yl)-4-azaspiro[2.4]heptane-4-carbonyl)-5-oxodecahydro-1H-cyclopropa[d]pyrrolo[1,2-a]azocin-6-yl)carbamoyl)benzo[b]thiophen-5-yl)difluoromethyl)phosphoryl)bis(oxy))bis(ethane-2,1-diyl)) dibutanethioate] | > 7.00 |
| CCCC(=O)SCCOP(=O)(OCCSC(=O)CCC)C(F)(F)c1ccc2sc(C(=O)NC3CC4CC4CC4CCC(C(=O)N5CC(C#N)C(c6cccc(OCCCCCC#Cc7cccc8c7CN(C7CCC(=O)NC7=O)C8=O)c6)C5)N4C3=O)cc2c1 [Compound 8, S,S′-(((((2-(((3S,6S,7aS,8aR,9aR)-3-((rel-3S,4R)-3-cyano-4-(3-((7-(2-(2,6-dioxopiperidin-3-yl)-1-oxoisoindolin-4-yl)hept-6-yn-1-yl)oxy)phenyl)pyrrolidine-1-carbonyl)-5-oxodecahydro-1H-cyclopropa[d]pyrrolo[1,2-a]azocin-6-yl)carbamoyl)benzo[b]thiophen-5-yl)difluoromethyl)phosphoryl)bis(oxy))bis(ethane-2,1-diyl)) dibutanethioate] | > 7.00 |
| CCCC(=O)SCCOP(=O)(OCCSC(=O)CCC)C(F)(F)c1ccc2sc(C(=O)NC3CC4CC4CC4CCC(C(=O)N5CC(c6ccn(CCCCCOc7ccc(C8CCC(=O)NC8=O)cc7)c(=O)c6)CC56CC6)N4C3=O)cc2c1 [Compound 9, S,S′-(((((2-(((3S,6S,7aS,8aR,9aR)-3-((6R)-6-(1-(5-(4-(2,6-dioxopiperidin-3-yl)phenoxy)pentyl)-2-oxo-1,2-dihydropyridin-4-yl)-4-azaspiro[2.4]heptane-4-carbonyl)-5-oxodecahydro-1H-cyclopropa[d]pyrrolo[1,2-a]azocin-6-yl)carbamoyl)benzo[b]thiophen-5-yl)difluoromethyl)phosphoryl)bis(oxy))bis(ethane-2,1-diyl)) dibutanethioate] | > 7.00 |
| CCCC(=O)SCCOP(=O)(OCCSC(=O)CCC)C(F)(F)c1ccc2sc(C(=O)NC3CC4CC4CC4CCC(C(=O)N5CC(C#N)C(c6cccc(N7CCN(c8ccc9c(c8)[nH]c(=O)n9C8CCC(=O)NC8=O)CC7)c6)C5)N4C3=O)cc2c1 [Compound 14, S,S′-(((((2-(((3S,6S,7aS,8aR,9aR)-3-((rel-3S,4R)-3-cyano-4-(3-(4-(1-(2,6-dioxopiperidin-3-yl)-2-oxo-2,3-dihydro-1H-benzo[d]imidazol-5-yl)piperazin-1-yl)phenyl)pyrrolidine-1-carbonyl)-5-oxodecahydro-1H-cyclopropa[d]pyrrolo[1,2-a]azocin-6-yl)carbamoyl)benzo[b]thiophen-5-yl)difluoromethyl)phosphoryl)bis(oxy))bis(ethane-2,1-diyl)) dibutanethioate] | > 7.00 |
| CCCC(=O)SCCOP(=O)(OCCSC(=O)CCC)C(F)(F)c1ccc2sc(C(=O)NC3CC4CC4CC4CCC(C(=O)N5CC(C#N)C(c6cccc(OCCOCCOc7cccc8c7CN(C7CCC(=O)NC7=O)C8=O)c6)C5)N4C3=O)cc2c1 [Compound 16, S,S′-(((((2-(((3S,6S,7aS,8aR,9aR)-3-((rel-3S,4R)-3-cyano-4-(3-(2-(2-((2-(2,6-dioxopiperidin-3-yl)-1-oxoisoindolin-4-yl)oxy)ethoxy)ethoxy)phenyl)pyrrolidine-1-carbonyl)-5-oxodecahydro-1H-cyclopropa[d]pyrrolo[1,2-a]azocin-6-yl)carbamoyl)benzo[b]thiophen-5-yl)difluoromethyl)phosphoryl)bis(oxy))bis(ethane-2,1-diyl)) dibutanethioate] | > 7.00 |
| CCCC(=O)SCCOP(=O)(OCCSC(=O)CCC)C(F)(F)c1ccc2sc(C(=O)NC3CC4CC4CC4CCC(C(=O)N5CC(c6ccn(CCOCCOCCOc7cccc8c7CN(C7CCC(=O)NC7=O)C8=O)c(=O)c6)CC56CC6)N4C3=O)cc2c1 [Compound 18, S,S′-(((((2-(((3S,6S,7aS,8aR,9aR)-3-((6R)-6-(1-(2-(2-(2-((2-(2,6-dioxopiperidin-3-yl)-1-oxoisoindolin-4-yl)oxy)ethoxy)ethoxy)ethyl)-2-oxo-1,2-dihydropyridin-4-yl)-4-azaspiro[2.4]heptane-4-carbonyl)-5-oxodecahydro-1H-cyclopropa[d]pyrrolo[1,2-a]azocin-6-yl)carbamoyl)benzo[b]thiophen-5-yl)difluoromethyl)phosphoryl)bis(oxy))bis(ethane-2,1-diyl)) dibutanethioate] | 6.00 to 7.00 |
| CCCC(=O)SCCOP(=O)(OCCSC(=O)CCC)C(F)(F)c1ccc2sc(C(=O)NC3CC4CC4CC4CCC(C(=O)N5CC(c6ccn(C7CCN(c8ccc9c(c8)[nH]c(=O)n9C8CCC(=O)NC8=O)CC7)c(=O)c6)CC56CC6)N4C3=O)cc2c1 [Compound 20, S,S′-(((((2-(((3S,6S,7aS,8aR,9aR)-3-((6R)-6-(1-(1-(1-(2,6-dioxopiperidin-3-yl)-2-oxo-2,3-dihydro-1H-benzo[d]imidazol-5-yl)piperidin-4-yl)-2-oxo-1,2-dihydropyridin-4-yl)-4-azaspiro[2.4]heptane-4-carbonyl)-5-oxodecahydro-1H-cyclopropa[d]pyrrolo[1,2-a]azocin-6-yl)carbamoyl)benzo[b]thiophen-5-yl)difluoromethyl)phosphoryl)bis(oxy))bis(ethane-2,1-diyl)) dibutanethioate] | 6.00 to 7.00 |
